Measurements as given in ChEMBL document CHEMBL5356986, “Research status of indole-modified natural products” (RSC Med Chem, 2023).
In brackets after ≈: the same amount, converted by molar mass.

Legend:
H4 = assay: Antiproliferative activity against human H4 cells assessed as cell growth inhibition; assay type: functional, cell-based
Bel-7402 = assay: Cytotoxicity against human Bel-7402 cells assessed as reduction in cell viability measured after 72 hrs by MTT assay; assay type: functional, cell-based; details: Bel-7402, 72 h
[1] = Antioxidant activity assessed as DPPH radical scavenging activity; assay type: functional
HeLa [2] = assay: Antiproliferative activity against human HeLa cells assessed as reduction in cell growth; assay type: functional, cell-based
Alpha glucosidase = Alpha glucosidase (Homo sapiens, UniProt O43451+P10253+P14410+Q2M2H8); assay: Inhibition of alpha glucosidase (unknown origin) measured after 60 mins; assay type: protein assay
A549 [3] = assay: Antiproliferative activity against human A549 cells assessed as reduction in cell viability incubated for 48 hrs by MTT assay; assay type: functional, cell-based; details: A549, 48 h
MCF7 [4] = assay: Cytotoxicity against human MCF7 cells assessed as reduction in cell viability after 48 hrs by SRB assay; assay type: functional, cell-based; details: MCF7, 48 h
A549 [5] = assay: Antiproliferative activity against human A549 cells assessed as reduction in cell viability by MTT assay; assay type: functional, cell-based
RPMI-8226 = assay: Growth inhibition of human RPMI-8226 cells; assay type: functional
CCRF-CEM = assay: Growth inhibition of human CCRF-CEM cells; assay type: functional
HeLa [6] = assay: Antiproliferative activity against human HeLa cells assessed as inhibition of cell growth incubated for 72 hrs by MTT assay; assay type: functional, cell-based
HT-29 = assay: Antiproliferative activity against human HT-29 cells assessed as inhibition of cell proliferation by MTT assay; assay type: functional, cell-based
MCF7 [7] = assay: Antiproliferative activity against human MCF7 cells assessed as inhibition of cell growth after overnight incubation by MTT assay; assay type: functional, cell-based
[8] = Antioxidant activity assessed as DPPH radical scavenging activity measured after 30 mins; assay type: functional
MCF7 [9] = assay: Antiproliferative activity against human MCF7 cells assessed as reduction in cell viability incubated for 120 hrs by MTT assay; assay type: functional, cell-based; details: MCF7, 120 h
[10] = system: Human immunodeficiency virus 1; assay: Antiviral activity against HIV-1 harboring integrase L74M mutant; assay type: functional, organism-based
Staphylococcus aureus [11] = assay: Antibacterial activity against Staphylococcus aureus assessed as reduction in microbial growth; assay type: functional
Bacillus subtilis = assay: Antibacterial activity against Bacillus subtilis assessed as reduction in microbial growth; assay type: functional
Escherichia coli [12] = assay: Antibacterial activity against Escherichia coli assessed as reduction in bacterial cell viability; assay type: functional
Klebsiella pneumoniae = assay: Antibacterial activity against Klebsiella pneumoniae assessed as reduction in bacterial growth by broth microdilution method; assay type: functional
Aspergillus niger = assay: […] against Aspergillus niger assessed as […] incubated for 24 hrs by agar disc diffusion assay; assay type: functional
Candida albicans = assay: Antibacterial activity against Candida albicans assessed as reduction in bacterial growth; assay type: functional
Fusarium oxysporum = assay: Antifungal activity against Fusarium oxysporum assessed as inhibition of fungal growth; assay type: functional
MDA-MB-453 = assay: Antiproliferative activity against human MDA-MB-453 cells assessed as reduction in cell growth after 72 hrs by MTT assay; assay type: functional, cell-based; details: MDA-MB-453, 72 h
CAMA-1 = assay: Antiproliferative activity against human CAMA-1 cells assessed as cell growth inhibition; assay type: functional, cell-based
Staphylococcus aureus [13] = assay: Antibacterial activity against methicillin-resistant Staphylococcus aureus assessed as reduction in microbial growth; assay type: functional
Enterococcus faecalis = assay: Antibacterial activity against Enterococcus faecalis assessed as reduction in bacterial growth; assay type: functional
Staphylococcus aureus [14] = assay: Antibacterial activity against Staphylococcus aureus […] assessed as reduction in microbial growth; assay type: functional
Staphylococcus aureus [15] = assay: Antibacterial activity against Staphylococcus aureus ATCC 29213 assessed as reduction in microbial growth; assay type: functional
Escherichia coli [16] = assay: Antibacterial activity against Escherichia coli assessed as reduction in bacterial growth by broth microdilution method; assay type: functional
Acinetobacter baumannii = assay: Antibacterial activity against Acinetobacter baumannii assessed as reduction in bacterial growth by broth microdilution method; assay type: functional
MCF7 [17] = assay: Cytotoxicity against human MCF7 cells assessed as reduction in cell viability by MTS assay; assay type: functional, cell-based
HCT-116 = assay: Cytotoxicity against human HCT-116 cells assessed as reduction in cell viability by MTS assay; assay type: functional, cell-based
K562 = assay: Antiproliferative activity against human K562 cells assessed as cell growth inhibition by MTT assay; assay type: functional, cell-based

## COC(=O)[C@]1(C)CC[C@]2(C)CC[C@]3(C)C4=CC(c5cn(C)c6cc(Cl)ccc56)=C5C(=CC(OC)C(OC)=C5C)[C@]4(C)CC[C@@]3(C)[C@@H]2C1 (stereo partly specified)
H4
  IC50: 2.03 µM
Bel-7402
  IC50: 0.01 µM

## O=C1O[C@H]([C@@H](O)CO)C([O-])=C1O.[Na+] [SODIUM ASCORBATE]
[1]
  IC50: 12.8 µM

## COc1cc([C@@H]2c3cc4c(cc3[C@H](NC(=O)C(=O)c3c[nH]c5ccc(C(=O)NC(C)C)cc35)[C@H]3COC(=O)[C@H]23)OCO4)cc(OC)c1OC
HeLa [2]
  IC50: 3.92 µM

## C=C(C)[C@@H]1CC[C@]2(C(=O)O)CC[C@]3(C)[C@H](CC[C@@H]4[C@@]5(C)Cc6c([nH]c7ccccc67)C(C)(C)[C@@H]5CC[C@]43C)[C@@H]12
Alpha glucosidase
  IC50: 0.04 µM

## COc1cc([C@@H]2c3cc4c(cc3[C@H](NC(=O)c3cc5c([nH]c6ccccc65)c(-c5ccc(F)c(F)c5)n3)[C@H]3COC(=O)[C@H]23)OCO4)cc(OC)c1OC
A549 [3]
  IC50: 2.24 µM

## C[C@@H]1CC[C@H]2[C@@H](C)C(OC(=O)c3cc4ccccc4[nH]3)O[C@@H]3O[C@@]4(C)CC[C@@H]1[C@]32OO4 (stereo partly specified)
MCF7 [4]
  IC50: 6.78 µM
A549 [5]
  IC50: 12.9 µM

## C=C1C(=O)O[C@H]2[C@H]1CC1C(COC(=O)c3c[nH]c4ccccc34)=CCC[C@@]3(C)O[C@@]123 (stereo partly specified)
RPMI-8226
  GI50: 0.04 µM
CCRF-CEM
  GI50: 0.05 µM

## CCOC(=O)c1[nH]c2ccccc2c1/C=C/C(=O)c1cc(OC)c(OC)c(OC)c1
HeLa [6]
  IC50: 2.1 µM
HT-29
  IC50: 0.44 µM
MCF7 [7]
  IC50: 1.8 µM

## O=C(/C=C/c1ccc(O)c(O)c1)NCCc1c[nH]c2ccc(O)cc12 [N-CAFFEOYLSEROTONIN]
[8]
  EC50: 8.1 µM

## COc1ccc2[nH]cc(C(=O)C(=O)N[C@H]3c4cc5c(cc4[C@@H](c4cc(OC)c(OC)c(OC)c4)[C@H]4C(=O)OC[C@@H]43)OCO5)c2c1
MCF7 [9]
  IC50: 1.96 µM
HeLa [2]
  IC50: 1.96 µM

## C=C(C)[C@@H]1CC[C@]2(C(=O)O)CC[C@]3(C)[C@H](CC[C@@H]4[C@@]5(C)CC[C@H](OC(=O)CC(C)(C)C(=O)O)C(C)(C)[C@@H]5CC[C@]43C)[C@@H]12 [BEVIRIMAT]
[10]
  IC50: 0.065 µM

## COC(=O)c1[nH]c2ccc(OC)cc2c1/C=C/C(=O)c1cc(OC)c(OC)c(OC)c1
HeLa [6]
  IC50: 2.4 µM
HT-29
  IC50: 1 µM
MCF7 [7]
  IC50: 0.59 µM

## GENTAMICIN
Staphylococcus aureus [11]
  MIC: 26 µg/mL
Bacillus subtilis
  MIC: 28 µg/mL
Escherichia coli [12]
  MIC: 26 µg/mL
Klebsiella pneumoniae
  MIC: 26 µg/mL
Aspergillus niger
  MIC: 27 µg/mL
Candida albicans
  MIC: 28 µg/mL
Fusarium oxysporum
  MIC: 27 µg/mL

## CC1(C)CCC(C)(C)c2cc(C(=O)/C=C/c3c[nH]c4ccccc34)ccc21
MDA-MB-453
  IC50: < 0.01 µM
CAMA-1
  IC50: < 0.01 µM

## Cc1cc(=O)oc2cc(/N=C3/S/C(=C\c4c[nH]c5ccccc45)C(=O)N3CCO)ccc12
Staphylococcus aureus [13]
  MIC: 0.25 µg/mL
Enterococcus faecalis
  MIC: 0.25 µg/mL (≈ 0.561 µM)
Staphylococcus aureus [14]
  MIC: 0.25 µg/mL
Staphylococcus aureus [15]
  MIC: 0.25 µg/mL
Escherichia coli [16]
  MIC: 0.25 µg/mL (≈ 0.561 µM)
Acinetobacter baumannii
  MIC: 0.25 µg/mL (≈ 0.561 µM)

## COc1cc([C@@H]2c3cc4c(cc3[C@H](OC(=O)c3c[nH]c5ccccc35)[C@H]3COC(=O)[C@H]23)OCO4)cc(OC)c1OC
HeLa [2]
  IC50: 2.2 µM

## COc1ccc(OC)c(-c2nc(C(=O)N[C@H]3c4cc5c(cc4[C@@H](c4cc(OC)c(OC)c(OC)c4)[C@H]4C(=O)OC[C@@H]43)OCO5)cc3c2[nH]c2ccccc23)c1
A549 [3]
  IC50: 1.87 µM

## C=C1CC[C@H]2[C@@](C)(Cc3c([nH]c4ccccc34)[C@@]2(C)COC(C)=O)[C@@H]1C/C=C1\C=COC1=O
MCF7 [17]
  IC50: 1.85 µM
HCT-116
  IC50: 1.22 µM

## O=C1O[C@H]([C@@H](O)CO)C(O)=C1O [ASCORBIC ACID]
[8]
  EC50: 23 µM

## COc1cc([C@@H]2c3cc4c(cc3[C@H](OC(=O)c3ccc5cc[nH]c5c3)[C@H]3COC(=O)[C@H]23)OCO4)cc(OC)c1OC
K562
  IC50: 0.1 µM
